Values joined by “and” are separate entries in the source; they are usually repeats but may differ in a detail not shown here. Equal entries are not always repeated.
Experiment: solvent given as SMILES

COC(=O)c1ccc(-c2ccc(-c3nnc(-c4ccc(-c5nnc(-c6ccc(-c7ccc(C(=O)OC)cc7)s6)o5)cc4)o3)s2)cc1
emission maximum (in C1COCCO1): 400 nm
emission maximum (in CC#N): 400 nm
emission maximum (in CC(=O)N(C)C): 417 nm
emission maximum (in CCCCCCCCCCO): 408 nm
emission maximum (in CCCCCCCCO): 399 nm
emission maximum (in CCCCCCO): 389 nm
emission maximum (in CCCCO): 394 nm
emission maximum (in CCO): 400 nm
emission maximum (in CS(C)=O): 420 nm
emission maximum (in Cc1ccccc1): 399 nm
emission maximum (in ClC(Cl)Cl): 397 nm

O=CN1N=C(c2ccc(Br)cc2)C[C@@H]1c1ccccc1
emission maximum (in C1CCCCC1): 348 nm
emission maximum (in C1COCCO1): 352 nm
emission maximum (in CC#N): 351 nm
emission maximum (in CCO): 345 nm
emission maximum (in CCOC(C)=O): 350 nm
emission maximum (in CO): 350 nm
emission maximum (in CS(C)=O): 356 nm
emission maximum (in Cc1ccccc1): 349 nm
emission maximum (in ClC(Cl)(Cl)Cl): 351 nm

CCCCCCCCCCCCOc1ccc(C2=c3sc4ccccc4c3=[N+]3C2=Nc2c(-c4ccc(OCCCCCCCCCCCC)cc4)c4sc5ccccc5c4n2[B-]3(F)F)cc1
emission maximum (in C1CCOC1): 813 nm
emission maximum (in Cc1ccccc1): 804 nm
emission maximum (in ClC(Cl)Cl): 808 nm

COc1ccc2c(c1)[n+]([O-])nc(N)[n+]2[O-]
emission maximum (in CC#N): 510 nm
emission maximum (in O): 542 nm

C=CCNc1ccc2c(ccc3oc4cc(=[N+](C)C)ccc-4nc32)c1
emission maximum (in CC#N): 654 nm
emission maximum (in CCO): 650 nm
emission maximum (in ClCCl): 645 nm
emission maximum (in O): 660 nm

COc1ccc(-n2c(C)ccc2C)cc1
emission maximum (in CC#N): 421 nm
emission maximum (in CCCCCC): 336 nm

COc1ccc(-c2csc(/C(C#N)=C/c3ccc(Cl)cc3)n2)cc1
emission maximum (in CC#N): 543 nm

CC[C@H](C)COc1ccc(C2=C3C(C)=C(I)C(C)=[N+]3[B-](F)(F)n3c(C)c(I)c(C)c32)cc1
emission maximum (in ClCCl): 557 nm

CC1=N/C(=C\c2ccccc2N(C)C)C(=O)N1C
emission maximum (in C1CCCCC1): 472 nm
emission maximum (in C1CCOC1): 519 nm
emission maximum (in CC#N): 536 nm
emission maximum (in CO): 522 nm
emission maximum (in CS(C)=O): 552 nm
emission maximum (in ClCCl): 535 nm
emission maximum (in O): 426 nm

CC(C)CCCCN1CCc2c1ccc1c3c(ccc21)CCCC3=O
emission maximum (in C1CCCCC1): 507 nm
emission maximum (in CC#N): 625 nm
emission maximum (in CC(C)O): 637 nm
emission maximum (in CCC(C)=O): 612 nm
emission maximum (in CCO): 539 nm
emission maximum (in CCOC(C)=O): 586 nm
emission maximum (in CS(C)=O): 643 nm
emission maximum (in Cc1ccccc1): 554 nm
emission maximum (in ClCCl): 595 nm
emission maximum (in Clc1ccccc1): 573 nm

Cc1ccc(/C=C/c2ccccc2-[n+]2cc([O-])on2)cc1
emission maximum (in C1CCCCC1): 400 nm
emission maximum (in CC#N): 504 nm

COC(=O)c1ccc(C2=C(/C=C/c3ccc(OC)cc3)O[B-](F)(F)[O+]=C2/C=C/c2ccc(OC)cc2)cc1
emission maximum (in ClCCl): 557 nm

O=C1c2ccc(-c3ccc(N(c4ccccc4)c4ccccc4)cc3)cc2C(=O)c2ccc(-c3ccc(N(c4ccccc4)c4ccccc4)cc3)cc21
emission maximum (in Cc1ccccc1): 597 nm
emission maximum (in c1ccc2c(c1)c1ccccc1n2-c1ccc(-c2ccc(-n3c4ccccc4c4ccccc43)cc2)cc1): 594 nm

c1ccc(-c2cc(-c3ccc(N4c5ccccc5C(c5ccccc5)(c5ccccc5)c5ccccc54)cn3)nc(-c3ccccc3)n2)cc1
emission maximum (in Cc1ccccc1): 480 nm
emission maximum (in O=P(c1ccccc1)(c1ccccc1)c1ccccc1Oc1ccccc1P(=O)(c1ccccc1)c1ccccc1): 486 nm

F[B-]1(F)n2c(ccc2-c2ccccc2)C(C(F)(F)F)=C2C=CC(c3ccccc3)=[N+]21
emission maximum (in CCCCCC): 622 nm

CC(C)(C)c1ccc(C2=c3c(c4ccc(C(C)(C)C)cc4c4cc(C(C)(C)C)ccc34)=[N+]3C2=C(c2ccccc2)c2c(-c4ccc(C(C)(C)C)cc4)c4c5ccc(C(C)(C)C)cc5c5cc(C(C)(C)C)ccc5c4n2[B-]3(F)F)cc1
emission maximum (in C1CCCCC1): 711 nm
emission maximum (in C1CCOC1): 712 nm
emission maximum (in CC#N): 706 nm
emission maximum (in Cc1ccccc1): 714 nm
emission maximum (in ClCCl): 712 nm

COc1cc2c(cc1OC)C1=C[C@H](c3ccc(Cl)cc3)C3(C(C#N)=C(C#N)N1CC2)c1cc(Br)ccc1-c1ccc(Br)cc13
emission maximum (in ClCCl): 420 nm

CC(C)c1cc(C(C)C)c(B2c3cc(N4c5ccccc5Oc5ccccc54)ccc3N(c3ccccc3)c3ccc(N4c5ccccc5Oc5ccccc54)cc32)c(C(C)C)c1
emission maximum (in C1CCOC1): 554.08 nm
emission maximum (in CCOC(C)=O): 546.26 nm
emission maximum (in Cc1ccccc1): 510.2 nm
emission maximum (in ClCCl): 546.26 nm
emission maximum (in c1cc(-c2cccc(-n3c4ccccc4c4ccccc43)c2)cc(-n2c3ccccc3c3ccccc32)c1): 512 nm

c1cnc(-c2c3ccccc3c(-c3cncnc3)c3ccccc23)nc1
emission maximum (in CCO): 433 nm
emission maximum (in ClCCl): 436 nm

CCCCCCCN1C(=CC2=C([O-])C(=Cc3sc4ccccc4[n+]3CCCCCCC)C2=C(C#N)C#N)Sc2ccccc21
emission maximum (in C1COCCO1): 723 nm
emission maximum (in CCO): 711 nm
emission maximum (in CN(C)C=O): 717 nm
emission maximum (in ClC(Cl)Cl): 724 nm

CN(C)c1ccc(C(=Cc2ccc(/C=C/c3ccc(C#N)cc3)cc2)c2ccc(N(C)C)cc2)cc1
emission maximum (in C1CCOC1): 481 nm

CCOC(=O)CCCCCn1c2ccccc2c(=O)c2cc(I)ccc21
emission maximum (in CO): 430 nm

CC(C)(C)c1cc(-c2ccc(-c3cccs3)s2)c2c(c1)c1cc(C(C)(C)C)cc(-c3ccc(-c4cccs4)s3)c1n2-c1ccc(-c2cccs2)s1
emission maximum (in ClCCl): 434 nm

CCn1c2ccccc2c2cc(-c3cc(-c4ccc5c(c4)c4ccccc4n5CC)ncn3)ccc21
emission maximum (in C1CCOC1): 395 nm
emission maximum (in CCOC(C)=O): 392 nm
emission maximum (in CN(C)C=O): 418 nm
emission maximum (in Cc1ccccc1): 379 nm
emission maximum (in ClCCl): 414 nm

Cc1nc2c(c[n+]1C)CN1C(=O)N([C@H]3O[C@@H](CO)[C@H](O)[C@@H]3O)C=CC1=N2
emission maximum (in CC#N): 416 nm
emission maximum (in CC(C)=O): 418 nm
emission maximum (in CCCCO): 417 nm
emission maximum (in CCCO): 417 nm
emission maximum (in CCO): 417 nm
emission maximum (in CO): 417 nm
emission maximum (in O): 414 nm
emission maximum (in [2H]OC): 417 nm
emission maximum (in [2H]OCC): 417 nm
emission maximum (in [2H]O[2H]): 414 nm

CC1(C)c2ccccc2N2c3ccccc3C3(c4cc(C#N)ccc4-c4ccc(C#N)cc43)c3cccc1c32
emission maximum (in Cc1ccccc1): 485.37 nm

CCCC1(CCC)c2ccccc2-c2ccc(-c3ccc(OC)cc3)cc21
emission maximum (in C1CCCCC1): 345 nm

COc1ccc2c3ccc(OC)cc3n(-c3cc(Cl)c([C](c4c(Cl)cc(Cl)cc4Cl)c4c(Cl)cc(Cl)cc4Cl)c(Cl)c3)c2c1
emission maximum (in C1CCCCC1): 638 nm

COc1ccc(C2=CC(c3ccc4cc(N(C)C)ccc4c3)=[O+][B-](F)(F)O2)cc1
emission maximum (in C1CCOC1): 618 nm
emission maximum (in CC#N): 681 nm
emission maximum (in CC(C)=O): 660 nm
emission maximum (in CS(C)=O): 698 nm
emission maximum (in Cc1ccccc1): 555 nm
emission maximum (in ClC(Cl)Cl): 596 nm
emission maximum (in ClCCl): 631 nm

Cc1cc2nc3c(=O)n(C)c(=O)nc-3n(C)c2cc1C
emission maximum (in CC#N): 531 nm

COc1cc2c(cc1/C=C/C(=C(C#N)C#N)c1ccccc1)c1ccccc1n2C
emission maximum (in C1CCOC1): 568 nm
emission maximum (in CC#N): 589 nm
emission maximum (in CCO): 575 nm
emission maximum (in CCOC(C)=O): 549 nm and 548 nm
emission maximum (in CN(C)C=O): 573 nm
emission maximum (in CO): 575 nm
emission maximum (in CS(C)=O): 581 nm
emission maximum (in Cc1ccccc1): 566 nm
emission maximum (in ClC(Cl)Cl): 554 nm
emission maximum (in ClCCl): 560 nm

O=C1c2cccc3cc(C#CC#Cc4cc5c6c(cccc6c4)C(=O)N(c4ccccc4)C5=O)cc(c23)C(=O)N1c1ccccc1
emission maximum (in ClCCl): 421 nm

C[SiH](C)c1ccc([SiH](C)C)c2ccccc12
emission maximum (in C1CCCCC1): 333 nm

CC/[NH+]=c1\cc2oc3cc(NCCC(=O)O)c4ccccc4c3nc-2cc1C
emission maximum (in CCO): 644 nm
emission maximum (in O): 652 nm

N#Cc1c(-n2c3ccccc3c3cc(I)ccc32)c(-n2c3ccccc3c3cc(I)ccc32)c(C#N)c(-n2c3ccccc3c3cc(I)ccc32)c1-n1c2ccccc2c2cc(I)ccc21
emission maximum (in Cc1ccccc1): 548 nm

CCN(CC)c1ccc2c(c1)oc(=O)c1c(=O)oc3c(C)c4oc(=O)c5c(=O)oc6cc(N(CC)CC)ccc6c5c4cc3c12
emission maximum (in CS(C)=O): 558 nm
emission maximum (in ClCCl): 542 nm

[O-][n+]1c(-c2ccccc2)cc(N2CCOCC2)nc1/C=C/c1ccccc1
emission maximum (in ClCCl): 548 nm

C[Si]1(C)O[Si](C)(C)c2cc3nc4ccccc4c(-c4ccccc4)c3cc2[Si](C)(C)O1
emission maximum (in ClCCl): 501 nm

c1csc(-c2nc3ccccc3c3cc4ccccn4c23)c1
emission maximum (in CS(C)=O): 508 nm

C(=C\c1c2ccccc2cc2ccccc12)/c1ccccc1
emission maximum (in CC1CCCCC1): 468 nm
emission maximum (in CC#N): 476 nm

Cc1ccc(C2CC(=O)Oc3c2c2nc4ccccc4nc2c2ccccc32)cc1 (centres undefined)
emission maximum (in ClC(Cl)Cl): 440 nm

CC(C)c1cc(C(C)C)c(B2c3ccccc3Oc3cc(N4c5ccccc5C5(c6ccccc6-c6ccccc65)c5ccccc54)ccc32)c(C(C)C)c1
emission maximum (in Cc1ccccc1): 456 nm

O=S(=O)([O-])c1ccc2c(O)cc(S(=O)(=O)[O-])cc2c1
emission maximum (in O): 385 nm

CCCCN1c2ccccc2B(c2ccccc2C(F)(F)F)c2ccccc21
emission maximum (in ClCCl): 401 nm

Cc1ccc(C2CC(c3ccc(O)cc3)=NN2c2ccc(S(N)(=O)=O)cc2)cc1 (centres undefined)
emission maximum (in C1CCOC1): 417 nm
emission maximum (in C1COCCO1): 417 nm
emission maximum (in CC#N): 417 nm
emission maximum (in CC(C)O): 423 nm
emission maximum (in CCO): 428 nm
emission maximum (in CCOC(C)=O): 415 nm
emission maximum (in CN(C)C=O): 422 nm
emission maximum (in CO): 432 nm
emission maximum (in CS(C)=O): 424 nm
emission maximum (in O): 449 nm

c1ccc([B-]2(c3ccccc3)Oc3ccc4ccccc4c3-c3c4ccccc4cc[n+]32)cc1
emission maximum (in Cc1ccccc1): 522 nm

c1ccc(-n2c3c(c4c2-c2ccccc2C42c4ccccc4-c4ccccc42)C2(c4ccccc4-c4ccccc42)c2ccccc2-3)cc1
emission maximum (in C1CCOC1): 408 nm

CC1=C(/C=C/c2ccccc2)C2=Cc3c(/C=C/c4ccccc4)c(C)c(C)n3[B-](F)(F)[N+]2=C1C
emission maximum (in CC#N): 589 nm

COC(=O)/C(C#N)=c1\s/c(=c2/s/c(=C(/C#N)C(=O)OC)c3cc(-c4ccc(C)cc4)sc23)c2sc(-c3ccc(C)cc3)cc12
emission maximum (in Cc1ccccc1): 652 nm

Source: the Deep4Chem optical property database
